Laboratory results reported in ChEMBL document CHEMBL1130955, “Solid-phase synthesis of potential protein tyrosine phosphatase inhibitors via the Ugi four-component condensation” (Bioorg Med Chem Lett, 1998).

Test: Compound was tested for the inhibition of PTP-epsilon at the concentration 100 uM

inhibition [%]	SMILES
> 50	O=C(NC(C(=O)NCc1ccccc1)c1ccc(Oc2ccccc2)cc1)c1ccc(C(F)(F)P(=O)(O)O)cc1 (stereo not drawn)
> 50	CN(C)c1ccc(C(NC(=O)c2ccc(C(F)(F)P(=O)(O)O)cc2)C(=O)NCc2ccccc2)cc1 (stereo not drawn)
> 50	CCCCCC(NC(=O)c1ccc(C(F)(F)P(=O)(O)O)cc1)C(=O)NCc1ccccc1 (stereo not drawn)
